Where no end group is shown, it is not given here. [ ]: non-standard residue; d: D form. FAM = carboxyfluorescein fluorophore label
Key:
MMP7 = target: T1, MMP7 (Mus musculus, UniProt Q10738); test: recombinant host protease cleavage assay; format: biochemical
T1 sequence (Q10738 95-264): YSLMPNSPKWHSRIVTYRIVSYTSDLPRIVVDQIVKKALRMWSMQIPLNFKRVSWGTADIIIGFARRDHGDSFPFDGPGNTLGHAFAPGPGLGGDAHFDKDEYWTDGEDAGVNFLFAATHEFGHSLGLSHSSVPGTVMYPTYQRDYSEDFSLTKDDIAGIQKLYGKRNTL
Procedure: (§1) The specificity of LAS and ELA for P. aeruginosa cleavage was tested by collecting supernatants from PA01 or Staphylococcus aureus cultures and incubating them with FRET-paired substrates LAS-Q and ELA-Q in 384 well plates. […] To investigate whether the LAS and ELA substrates are also susceptible to cleavage by host proteases, each was incubated with recombinant mouse proteases.
(§2) Supernatant from PA01 and S. aureus were collected and added to substrates in 384 well plates and dequenching of FAM was monitored at 37° C. (Tecan). Fluorescence change at 30 minutes was reported. For recombinant protease assays, enzyme was added to the substrates in enzyme-specific buffer (MMP7 & 9 buffer: 50 mM Tris, 150 mM NaCl, 5 mM CaCl2), […], pH 7.5; Thrombin: PBS; NE: 100 mM HEPES, 500 mM NaCl, 0.05% Tween 20) in a 384 well plate for time-lapse fluorimetry to measure dequenching at 37° C. (Tecan).

thrombin = thrombin (Mus musculus, UniProt P19221); test: recombinant host protease cleavage assay; format: biochemical
Procedure: as §1, §2

neutrophil elastase = target: T2, neutrophil elastase (Mus musculus, UniProt Q3UP87); test: recombinant host protease cleavage assay; format: biochemical
T2 sequence (Q3UP87 27-265): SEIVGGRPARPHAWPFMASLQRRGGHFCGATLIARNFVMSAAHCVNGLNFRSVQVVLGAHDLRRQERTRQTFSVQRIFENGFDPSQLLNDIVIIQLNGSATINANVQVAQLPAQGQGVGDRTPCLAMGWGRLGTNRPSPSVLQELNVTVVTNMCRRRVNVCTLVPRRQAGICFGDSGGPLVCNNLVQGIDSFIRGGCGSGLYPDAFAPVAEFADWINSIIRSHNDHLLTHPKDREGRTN
Procedure: as §1, §2

MMP13 = MMP13 (Mus musculus, UniProt P33435); test: recombinant host protease cleavage assay; format: biochemical
Procedure: as §1, §2

[1] = test system: Staphylococcus aureus supernatant; test: cleavage of FRET-paired substrates by bacterial supernatant; format: biochemical; conditions: S. aureus culture supernatant, fluorescence change at 30 minutes
Procedure: as §1, §2

[2] = test system: P. aeruginosa clinical isolate strains; test: cleavage of FRET-paired substrates by clinical isolate supernatants; format: biochemical, Pseudomonas aeruginosa
Procedure: P. aeruginosa strains isolated from de-identified clinical samples were generously provided by Dr. Deborah Hung, MD, PhD (Massachusetts General Hospital). Cultures of each were grown in LB broth overnight, then were subcultured in fresh LB and each strain grown to OD-matched mid log phase (OD600˜0.5). Supernatants were collected by centrifugation and substrate cleavage was monitored as described above.

PA01 supernatant = test: cleavage of FRET-paired substrates by bacterial supernatant; format: biochemical, Pseudomonas aeruginosa
Procedure: as §1, §2

[3] = test system: 15 proteases in the LUAD protease panel; test: in vitro recombinant protease screen of FRET-paired substrates; format: biochemical; conditions: fluorescence fold change at 45 minutes; 1 μM substrate, 12.5 nM recombinant enzyme; MP metallo-, SP serine, AP aspartic protease
Text: Hundreds of peptide sequences have been previously designed and validated as protease substrates, leveraging known catalytic specificities of different protease families, published datasets and substrate sequences in databases like cutDB and MEROPS (Igarashi et al., Nucleic Acids Res 35, D546-549, 2007; Rawlings et al., Nucleic Acids Res 46, D624-D632, 2018). Fourteen of these substrates were nominated in an effort to cover the specificity profiles of metallo-, serine and aspartic endoproteases, all of which were included in the LUAD protease panel, and the catalytic activity of each protease-substrate pair was characterized. Quenched probes that incorporated the 14 peptide substrates were synthesized such that they fluoresce upon proteolytic cleavage to enable real-time monitoring of protease activity in vitro (FIG. 3A and Table 2). Each probe was incubated with each protease in the panel and fluorescence was monitored over 45 minutes. Shown are sample kinetic plots monitoring dequenching of the 14 FRET-paired probes when incubated with (above) and without (below) recombinant matrix metalloproteinase 3 (MMP3) (FIG. 3B). […] See also FIG. 19.
Fluorogenic protease substrates were synthesized by CPC Scientific. Recombinant proteases were purchased from Enzo Life Sciences, R&D Systems and Haematologic Technologies. For recombinant protease assays, fluorogenic substrates PPQ1-14 (1 μM final concentration) were incubated in 30 μL final volume in appropriate enzyme buffer, according to manufacturer specifications, with 12.5 nM recombinant enzyme at 37° C. (FIG. 3). Proteolytic cleavage of substrates was quantified by increases in fluorescence over time by fluorimeter (Tecan Infinite M200 Pro). Enzyme cleavage rates were quantified as relative fluorescence increase over time normalized to fluorescence before addition of protease. Hierarchical clustering was performed in GENE-E, using fluorescence fold changes at 45 minutes.

[4] = test system: Kras and p53 mutant lung adenocarcinoma (KP mice); test: urinary ABN readout and random forest classification in KP lung adenocarcinoma model; format: in vivo; conditions: KP mice
Procedure: To characterize ABN performance in vivo, 14 protease-sensitive ABNs were administered to KP mice and healthy, age and sex-matched controls at 5, 7.5 and 10.5 weeks after tumor initiation. Mouse bladders were voided one hour after intrapulmonary delivery and all fresh urine produced during the subsequent hour (from 60-120 minutes after administration) was pooled and collected. LC-MS/MS was performed and peak area ratios (defined as peak area of urinary reporter divided by peak area of spiked-in internal standard) of protease-sensitive reporters were mean-normalized within each sample to reduce mouse-to-mouse variation.
A random forest classifier was then sought to be built to enable prospective diagnosis of lung cancer in KP mice. Random forest is a high-performance classifier, applicable to a wide variety of classification tasks, that generates a collection of decision trees (a “forest”) that are sampled to produce classification results (Breiman, Machine Learning 45, 5-32, 2001). A random forest classifier was trained using 50% of control mice at 5 weeks, 7.5 weeks and 10.5 weeks, as well as 50% of KP mice at 7.5 weeks (FIG. 6A). The classifier assigned a probability that each mouse belonged to either the KP cohort or the healthy control cohort (FIG. 6B, “Training” panel), achieving perfect separation of control and KP mice. The classifier was then sought to be tested on an independent validation cohort consisting of classifier-naive KP mice at 5 weeks, 7.5 weeks and 10.5 weeks post-induction, as well as the remaining control mice from each time point.
Male B6/SV129 Kras^LSL-G12D/+; Trp53^fl/fl (KP) mice between 18 and 30 weeks old were used for lung adenocarcinoma experiments. Tumors were initiated, as described previously (DuPage et al., Nat Protoc 4, 1064-1072 (2009)), by the intratracheal administration of 50 μL of adenovirus-SPC-Cre (2.5×10^8 PFU in Opti-MEM with 10 mM CaCl2)) under isoflurane anesthesia. […] Tumor growth was monitored by micro computed tomography (microCT) imaging (General Electric) and was scored by a blinded radiation oncologist using MicroView (Parallax Innovations) (Table 4). Tumor volumes were calculated by using the ROI sphere/elliptical tool.
ABN constructs (GluFib-Substrate-PEG-840 kDa) for urinary experiments were synthesized by CPC Scientific (Sunnyvale, CA). ABNs were dosed (50 μL total volume, 20 μM concentration per ABN) by intratracheal intubation, as described above. Bladders were voided 60 minutes after ABN administration and all urine produced 60-120 min after ABN administration was collected using custom tubes in which the animals rest upon 96-well plates that capture urine. Urine was pooled and frozen at −80° C. until analysis by LC-MS/MS.
Liquid chromatography/tandem mass spectrometry was performed by Syneos Health (Princeton, NJ) using a Sciex 6500 triple quadrupole instrument. Briefly, urine samples were treated with UV irradiation to photocleave the ANP linker and liberate the Glu-Fib reporter from residual peptide fragments. Samples were extracted by solid-phase extraction and analyzed by multiple reaction monitoring by LC-MS/MS to quantify concentration of each Glu-Fib mass variant. Analyte quantities were normalized to a spiked-in internal standard and concentrations were calculated from a standard curve using peak area ratio (PAR) to the internal standard. Mean normalization was performed on PAR values to account for mouse-to-mouse differences in ABN inhalation efficiency and urine concentration.
Principal component analysis (PCA) was performed on mean normalized PAR values in the R statistical environment (Team, R.C. R, R Foundation for Statistical Computing, Vienna, Austria, 2017) using the prcomp function. Binary classification was performed using the Caret package (Kuhn, M. caret: Classification and Regression Training. (2017)) in the R statistical environment). […]

[5] = test system: Eml4-Alk (EA) lung adenocarcinoma model; test: urinary ABN readout and classification in Eml4-Alk model; format: in vivo; conditions: EA mice
Text: To assess the generalizability of ABNs to other genetic subtypes by leveraging the Eml4-Alk (EA) model Maddalo et al., Nature 516, 423-428 (2014), an autochthonous model in which intrapulmonary administration of adenovirus encoding two short guide RNAs (sgRNAs) and Cas9 results in translocation and fusion of the Eml4 and Alk genes, yielding lung adenocarcinoma that histologically resembles human disease.
Tumors were initiated in male C57BL/6 mice between 6 and 10 weeks old as described previously (50), by intratracheal administration of 50 μL adenovirus expressing the Ad-EA vector (Viraquest) (1.5×10^8 PFU in Opti-MEM with 10 mM CaCl2)).
It was determined whether the lung nanosensors could be prospectively applied to diagnose disease. […] The classifier was also evaluated on a test cohort that combined both LUAD models and again found strong classification at 7.5 weeks and 10.5 weeks (AUC7.5 wk s=0.97; AUC10.5 wk s=0.93) (FIG. 17C).
For all urine experiments, PAR values were normalized to ABN stock concentrations and then mean normalized across all reporters in a given urine sample prior to further statistical analysis. […] Ten independent train-test trials were run for each classification problem, and classification performance was evaluated with receiver operating characteristic (ROC) statistics calculated in MATLAB. […]

Substance | cleavage by recombinant protease (MMP7) | cleavage by recombinant protease (thrombin) | cleavage by recombinant protease (neutrophil elastase) | cleavage by recombinant protease (MMP13) | cleavage by supernatant (fluorescence signal) [1] | extent of cleavage compared with LAS-Q ([2]; bacterial-derived proteases) | strains whose supernatant gave significant cleavage ([2]; five clinical isolate strains) | cleavage by supernatant (fluorescence signal) (PA01 supernatant; PA01 culture supernatant, fluorescence change at 30 minutes) | cleavage potency by Michaelis-Menten type analysis (PA01 supernatant; range of substrate concentrations, compared with LAS substrate) | protease class(es) cleaving the substrate in vitro [3] | urinary reporter enrichment [4] | urinary reporter enrichment [5]
ELA-Q: FRET-paired (FAM fluorophore, Dabcyl quencher) substrate for elastases including neutrophil elastase; includes SEQ ID NO: 47 (GAAFAGK(FAM); also: Dabcyl quencher, site not given here) | resist cleavage | resist cleavage | cleaved | resist cleavage | Significant increases | more extensively cleaved | 3 of the 5 strains | Significant increases | more potently cleaved | – | – | –
PP01: ABN: reporter e(+2G)(+6V)ndneeGFFsAr, ANP, substrate PQGIWGQ, nanocarrier PEG8-40 kDa (chain 1 [dE]G[+6V][dN][dD][dN][dE][dE]GFF[dS]A[dR]; not fully specified (some residues); printed as PP01: ABN: reporter e(+2G)(+6V)ndneeGFFsAr, ANP, substrate PQGIWGQ, nanocarrier PEG8-40 kDa; also: ANP photolabile linker, PEG8-40 kDa nanocarrier, linkage of reporter, ANP, substrate and carrier not given here) | – | – | – | – | – | – | – | – | – | metalloprotease-specific | not in KP mice | consistent enrichment

Source: patent US12173349B2, “Lung protease nanosensors and uses thereof” (Massachusetts Institute of Technology, priority 2018, dated 2024)
